# According to ChEMBL document CHEMBL2094269, “WEHI/Eskitis Trypanosoma b. brucei screening data”:
# pIC50: −log10 of the molar value.
# Test system: Trypanosoma brucei brucei
# Assay: microbe, parasite or virus in culture
# Format: functional, organism-based, STIB 795
# Conditions: not given
row,Compound,pIC50
1,CCN(CC)c1ccc(CNCCc2c(C)[nH]c3ccccc23)cc1,5.47

# Same assay, conditions: Trypanosoma brucei, STIB 795
row,Compound,pIC50
1,C=CCc1c(C)nc(SC)nc1Nc1ccc(C(C)=O)cc1,< 4.98
2,Cc1cc(=O)[nH]c(Nc2ccc(Br)cc2)n1,< 4.98
3,c1ccc(CCCNc2ccnc3cc4ccccc4cc23)cc1,< 4.98
4,CCC(=O)NCCc1nc(-c2ccccc2)cs1,< 4.98
5,CCC(=O)N1CCN(c2oc(/C=C/c3ccc(Cl)cc3)nc2C#N)CC1,< 4.98
6,O=C(/C(=C/c1cccnc1)c1nc2ccccc2[nH]1)c1ccccc1,< 4.98
7,CC(C)(C)c1ccc(C(CN)c2ccc(Oc3ccccc3)cc2)cc1 (stereo unspecified),< 4.98
8,O=C(CCn1nnc2ccccc21)N/N=C/c1cc(Br)ccc1O,< 4.98
9,CCOC(=O)c1sc(=S)n(-c2ccccc2CC)c1N,< 4.98
10,COc1ccc2c(c1)SCc1ccccc1/C2=C\CCN(C)C,< 4.98
11,CCN1CCN(c2cc(C)c3cc(NC(=O)c4ccccc4F)ccc3n2)CC1,< 4.98
12,Cc1cc(N2CCC(C)CC2)nc2ccc(NC(=O)c3cccc(Cl)c3)cc12,< 4.98
13,Cc1ccc2[nH]c3c(c2c1)CCCC3NCCCOc1ccc(F)cc1 (stereo unspecified),< 4.98
14,[H]/N=C(/N)SCc1nc2n(Cc3ccccc3)c3ccccc3n2c1C(=O)OC,< 4.98
15,Cc1ccc(O)c(/C=N/NC(=O)C2=NNC(c3ccccc3)(c3ccccc3)C2)c1,< 4.98
16,N=C1C=Cc2ccc(N)c3cccc1c23,< 4.98
17,Cc1c(-c2cc(F)cc3c2CC(C)(C)O3)ccc2nc(N)nc(N)c12,< 4.98
18,C/C(=N/OC(=O)c1ccc(Cn2nc(C)c(Cl)c2C)cc1)c1ccccn1,< 4.98
19,Cc1ccsc1/C=C/C(=O)Nc1ccc2nc(N3CCCCC3)cc(C)c2c1,< 4.98
20,Cc1ccc2cc3c(nc2c1)-c1ccccc1/C3=N/NC(N)=S,< 4.98
21,Cc1ccccc1-c1cc(N2CCN(C(=O)NC3CCCCC3)CC2)ncn1,< 4.98
22,CN(C)c1ccc(C(=O)NN=C2C=C(C(C)(C)C)C(=O)C(C(C)(C)C)=C2)cc1,< 4.98
23,CCCC(CCC)C(=O)Nc1ccc(O)cc1C(=O)O,< 4.98
24,COc1ccc(-c2n/c(=N/c3ccccc3)sn2-c2ccccc2)cc1,< 4.98
25,OC(CNCCc1ccccc1)CN1c2ccccc2Sc2ccccc21 (stereo unspecified),< 4.98
26,OCCN1CCN(Cc2ccccc2Sc2ccc3ccccc3c2)CC1,< 4.98

row,Compound,pIC50
1,CN(C)CC/C=C(\c1ccccc1)c1cccc(C(F)(F)F)c1,< 4.98
2,COc1nc(Nc2ccc(Cl)cc2)nc(NC(C)(C)C)n1,< 4.98
3,CC[n+]1c(/C=C2\Sc3ccccc3N2CCC(=O)O)sc2ccccc21,< 4.98
4,CC(Cc1ccccc1)NCCC1c2ccccc2-c2ccccc21 (stereo unspecified),< 4.98
5,O=C(O)c1ccc(NC(CC(=O)c2ccc(Cl)cc2)c2ccccc2)cc1 (stereo unspecified),< 4.98
6,CC(=O)Nc1cccc2c1C(=O)C(Cl)=C(N1CCOCC1)C2=O,< 4.98
7,O=C(Nc1nccs1)c1ccc(=O)n(Cc2ccccc2Cl)c1,< 4.98
8,N=C(NOC(=O)C12CC3CC(CC(C3)C1)C2)c1cccnc1,< 4.98
9,Cc1cc(OCC(=O)NNc2ccccc2)c(C(C)C)cc1Cl,< 4.98
10,CCN(CC)c1cc(C)nc(NCc2ccccc2)n1,< 4.98
11,CCOC(=O)c1ccc(CCCCCOc2cnc(N)nc2N)cc1,< 4.98
12,N=C(NOC(=O)c1ccc(Cl)c(Cl)c1)c1ccccn1,< 4.98
13,C/C(=N\NC(=O)c1cccc(Cl)c1)c1ccccc1O,< 4.98
14,Cc1cc(N2CCC(C)CC2)nc2ccc(NC(=O)c3c(F)cccc3F)cc12,< 4.98
15,CCC(=O)Nc1nc2ccc(NS(=O)(=O)c3ccccc3F)cc2s1,< 4.98
16,O=C1C(O)=C/C(=N/c2ccc(Cc3ccncc3)cc2)c2ccccc21,< 4.98
17,CCC(=O)c1sc(Nc2ccc(F)c(Cl)c2)nc1N,< 4.98
18,Cc1ccccc1C(=O)O/N=C(\N)c1ccccn1,< 4.98
19,Cn1c(=O)n(C)c2cc(N3CCCCC3)c(NC(=O)c3ccco3)cc21,< 4.98
20,C=CCN1C(=O)/C(=N/NC(=S)SC)c2ccccc21,< 4.98
21,CCN(CC)c1ccc(/C=N\NC(=O)c2ccccn2)c(O)c1,< 4.98
22,Nc1cc(NC(=O)c2ccncc2)cc(Oc2ccc(F)cc2)c1,< 4.98
23,Cc1ccsc1C=NN1CCN(c2ccc(Cl)cc2)CC1,< 4.98
24,Clc1ccc(Nc2nc3nonc3nc2NC2CCCCC2)cc1Cl,< 4.98
25,CCOC(=O)c1ccc(NC(=O)C(=O)NN=C2CCN(C)CC2)cc1,< 4.98
26,N#CC1=C(N)NC(SCc2ccc(F)cc2)=C(C#N)C12CCCCC2,< 4.98

row,Compound,pIC50
1,CNc1nsc(C(=O)c2ccc(C)cc2)c1N,< 4.98
2,CN(C)CCOC1c2ccccc2CCc2ccc3ccccc3c21 (stereo unspecified),< 4.98
3,CC(C)CNC(=O)Nc1cccc(-c2noc(C3(c4ccccc4)CC3)n2)c1,< 4.98
4,CC1(C)CC(=O)C(C2(O)C(=O)Nc3ccc(Br)cc32)CO1 (stereo unspecified),< 4.98
5,Cc1ccc(Nc2nc3nonc3nc2NC(C)c2ccccc2)cc1C (stereo unspecified),< 4.98
6,COc1ccccc1NCN1C(=O)C(=O)c2cc(Br)ccc21,< 4.98
7,O=c1c(Cl)c(Cl)cnn1C12CC3CC(CC(C3)C1)C2,< 4.98
8,CC(=O)c1cccc(Nc2cc(C)nc3c(C)cc(C)cc23)c1,< 4.98
9,Cc1cc(C(=O)N/N=C/c2c(O)ccc3ccccc23)c(C)o1,< 4.98
10,CCOC(=O)c1cc2c(=O)n3ccccc3nc2n(CCCn2ccnc2)c1=N,< 4.98
11,Cc1cc(C(=O)N/N=C/c2ccc(-c3cccc(C(=O)O)c3)o2)[nH]n1,< 4.98
12,O=C(N/N=C\c1c(O)ccc2ccccc12)c1ccc(Cn2cccn2)o1,< 4.98
13,CC(C)C(=O)NC(c1cccs1)c1cc(Cl)c2cccnc2c1O (stereo unspecified),< 4.98
14,CCN(CC)c1ccc(CNCCc2c(C)[nH]c3ccccc23)cc1,5.30
15,CC(C)(C)c1cc(C(c2ccncc2)N2CCCC2)cc(C(C)(C)C)c1O (stereo unspecified),< 4.98
16,CCOc1cc2c(cc1OCC)C(c1ccccc1)N(c1ccccc1)C(=O)C2 (stereo unspecified),< 4.98
17,Clc1ccc(Sc2ccc(/C=N/n3cnnc3)o2)cc1,< 4.98
18,Fc1ccc(C2CCCN(CCN3CCCC3)c3cc(F)ccc32)cc1 (stereo unspecified),< 4.98
19,Cc1ccc(Nc2nc3c(N)nnc(N)c3nc2Nc2ccc(C)cc2)cc1,< 4.98
20,O=C1/C(=C2\NCC(c3ccccc3)O2)Sc2ccccc21 (stereo unspecified),< 4.98
21,Cc1ccc2[nH]c3c(c2c1)CCC(/C=N/NC(=O)c1ccccc1)C3=O (stereo unspecified),< 4.98
22,COc1ccccc1CCNCc1ccc(OC)c(OCc2ccccc2)c1,< 4.98
23,CSc1ccc(/C=C2\CN(C)C/C(=C\c3ccc(SC)cc3)C2=O)cc1,< 4.98
24,O=C1C(=O)/C(=C/c2ccccc2)CCC/C1=C/c1ccccc1,< 4.98
25,COc1cc(C(CC(=O)c2ccco2)Sc2ccccc2)cc(OC)c1OC (stereo unspecified),< 4.98

# Results, then the compound that gave them:
row,pIC50,Compound
1,< 4.98,CCOC(=O)c1c(NC(C)=O)sc2c1CCC(Sc1ccccc1)C2O (stereo unspecified)
2,< 4.98,Cc1ccn(CC(=O)N/N=C/c2c(O)ccc3ccccc23)n1
3,< 4.98,COC(=O)c1cccc(Nc2nc(N)c(C(=O)CC(C)C)s2)c1
4,< 4.98,CCN(CC)c1ccc(N)c(C)c1
5,< 4.98,CCOC(=O)c1sc(-n2[nH]c(C)c(Cc3ccc(Cl)cc3)c2=O)nc1C
6,< 4.98,O=C(CCC(=O)Nc1cccc(Cl)c1)N/N=C/c1c(O)ccc2ccccc12
7,< 4.98,CCOC(=O)c1c(-c2cccs2)csc1NC(=O)C#Cc1ccccc1
8,< 4.98,CN(C)CCCC1=Cc2ccccc2Sc2ccccc21
9,< 4.98,Cc1ccnc(NC(c2ccc3cccnc3c2O)c2c(F)cccc2Cl)c1 (stereo unspecified)
10,< 4.98,CN(C)CCNC(=O)c1ccc2c(c1)NC(=O)/C(=C/c1ccccc1Cl)O2
11,< 4.98,COc1ccc(CNC2=C(C(=S)Nc3ccccc3)C(=O)CC(C)(C)C2)cc1
12,< 4.98,C=CCc1cccc(/C=N/NC(=O)c2cc(C(C)(C)C)n[nH]2)c1O
13,< 4.98,O=C(CC(SCCO)c1ccc2c(c1)OCO2)c1cccs1 (stereo unspecified)
14,< 4.98,NS(=O)(=O)c1ccc(N/C=C2\C(=O)Nc3ccccc32)cc1
15,< 4.98,CCCC1(CCC)c2ccccc2C(=CCCN(C)C)c2ccccc21
16,< 4.98,Cc1c(-c2cccc(O)c2)ccc2nc(N)nc(N)c12
17,< 4.98,CCc1ccccc1Nc1cc(C)nc2c(OC)cccc12
18,< 4.98,c1ccc(-c2nnc(-c3ccccn3)nc2-c2ccccc2)cc1
19,< 4.98,C/C(=N\N1C(=O)c2ccccc2NC1c1ccco1)c1ccccc1O (stereo unspecified)
20,< 4.98,CC(=O)c1nc2ccccc2n1CC(=O)c1ccc(C)cc1
21,< 4.98,CCOc1cccc(CNCCO)c1OCc1ccc(Cl)cc1Cl
22,< 4.98,Cc1nn(C(=N)N)c(C)c1C1c2ccccc2CCc2ccccc21

row,pIC50,Compound
1,< 4.98,CN(C)S(=O)(=O)c1ccc(C(=O)Nc2nnc(-c3cccs3)o2)cc1
2,< 4.98,COc1ccc(C(=O)NN=C2C=C(C(C)(C)C)C(=O)C(C(C)(C)C)=C2)cc1OC
3,< 4.98,CCc1no[c+](-c2ccccc2O)n1C
4,< 4.98,Cc1ccc(-c2csc3ncnc(N/N=C/c4cc(C)ccc4O)c23)cc1
5,< 4.98,ON=C1C=CC(=NNc2nncc3ccccc23)C=C1
6,< 4.98,N=c1n(Cc2ccccc2Cl)c2ccccc2n1CC(O)c1ccco1 (stereo unspecified)
7,< 4.98,Cc1ccc(CN2C(=O)CCC2C(=O)N2CCN(c3ccc(F)cc3)CC2)cc1 (stereo unspecified)
8,< 4.98,Cc1ccc(Nc2cc(C)nc(N3CCN(C(=O)c4ccco4)CC3)n2)cc1
9,< 4.98,CCOC(=O)c1ccc(NC(=O)CN(c2cccc(F)c2)S(C)(=O)=O)cc1
10,< 4.98,COc1ccccc1NC(=S)N/N=C/c1cccn1Cc1ccccc1F
11,< 4.98,CCN(CC)C(=O)c1ccc(Nc2ccnc3cc4ccccc4cc23)cc1
12,< 4.98,O=C(NO)c1ccccc1C(F)(F)F
13,< 4.98,CN(CC(=O)Nc1nncs1)S(=O)(=O)c1ccc(Br)cc1
14,< 4.98,Cc1nc(=S)sn1-c1nc(Nc2ccccc2)nc(Nc2ccccc2)n1
15,< 4.98,N#Cc1ccc(-c2csc(NNC(=O)c3ccco3)n2)cc1
16,< 4.98,Fc1cccc(Cl)c1COc1ccc(/C=N/n2cnnc2)cc1
17,< 4.98,CCOc1ccc2c(C)nc(NC3=NC(C)=CC(C)(C)N3)nc2c1
18,< 4.98,CCCC(=O)NC(c1ccc2c(c1)OCO2)c1cc(Cl)c2cccnc2c1O (stereo unspecified)
19,< 4.98,O=C(NCC1CCCO1)c1cccc(Oc2cc(-c3ccc(F)cc3)ncn2)c1 (stereo unspecified)
20,< 4.98,COc1cccc(/C=C2/CN(C(C)C)C/C(=C\c3cccc(OC)c3)C2=O)c1
21,< 4.98,Cc1nc(NC(C)(C)C)c2sc3nc4c(cc3c2n1)COC(C)(C)C4
